Data reported in US6410790B1, “3-amin3-arylpropan-1-ol compounds, their preparation and use” (priority 1999, dated 2002).

Tests used:
[1] = tested on: phenylquinone-induced writhing reaction; assay: phenylquinone-induced writhing test in mice; assay type: in vivo; conditions: male NMRI mice, phenylquinone i.p. 10 minutes later; for inhibition in vivo at 10 mg/kg: Mus musculus, iv, 10 min, 10 mg/kg intravenously
Protocol: Analgesic Effect in the Writhing Test in Mice
The analgesic effect was investigated in the phenylquinone-induced writhing test in mice (as modified by I. C. Hendershot and J. Forsaith (1959) J. Pharmacol. Exp. Ther. 125, 237-240). Male NMRI mice weighing 25 to 30 g were used for the test. Groups of 10 animals each received by intraperitoineal application, for each substance dose, 0.3 ml/mouse of a 0.02% aqueous solution of phenylquinone (phenylbenzoquinone, Sigma Company, Deisenhofen; solution prepared with addition of 5% of ethanol and kept in a water bath at 45° C.) 10 minutes after intravenous administration of the test substances. The animals were placed individually in observation cages. The number of pain-induced stretching movements (so-called writhing reactions=straightening of the body together with stretching of the rear extremities) was measured by means of a push-button counter 5 to 20 minutes after administration of the phenylquinone. Animals that had received only physiological saline solution served as controls. All substances were tested in the standard dose of 10 mg/kg. The percentage inhibition (% inhibition) of the writhing reaction produced by a substance was calculated according to the following formula: [formula]

[2] = tested on: benzothiazepine binding site of the L-type calcium channel; assay: Diltiazem binding, L calcium channel; set-up: species or system rat; conditions: 10 μM, percentage inhibition, [3H]-cis-(+)-diltiazem 5 nM, rat cerebral cortex membranes
Protocol: Binding Investigations in the L Calcium Channel
Benzothiazepine Binding Site (Diltiazem Binding)
The biological membrane material was isolated from the rat cerebral cortex. [^3H]-cis-(+)-diltiazem (5 nM in the assay) was used as ligand. The material was incubated for 20 minutes at 25° C. The radioactivity that is measured in the presence of (±)-diltiazem (10^−6 M in the assay) is defined as non-specific binding. After completion of incubation the non-bound fraction of the radioactive ligand is separated by means of a filtration process using Whatman Glasfiber GF/B membranes. The membranes are washed and the radioactivity is then measured using a β-counter. The method is based on the details published by Schoemaker and Langer (H. Schoemaker and S. Z. Langer (1985) Eur. J. Pharmacol. 111, 273-277).
(§1) For this purpose IC50 values are obtained, which can be converted to inhibitor constants (Ki) according to the “Cheng-Prusoff equation” (Y. C. Clieng and W. H. Prusoff (1973) Biochem. Pharmacol. 22, 3099-3108). The IC50 values were obtained by means of the computer program “Figure P” (version 6.0, Biosoft, Cambridge, England). Km values were calculated according to Lineweaver and Burk (H. Lineweaver and D. Burk (1934) J. Am. Chem. Soc. 56, 658-666). The “Ligand” computer program (version 4, Biosoft, England) was used to obtain Ken values.

[3] = tested on: binding site 2 of the sodium channel; assay: BTX binding, sodium channel; conditions: 10 μM, percentage inhibition, [3H]-batrachotoxin A20 α-benzoate 10 nM, rat cerebral cortex synaptosomes
Protocol: Binding Investigations in the Sodium Channel
Binding Site 2 (BTX Binding)
The binding site 2 of the sodium channel is the so-called batrachotoxin (BTX) binding site. [^3H]-batrachlotoxin A20 α-benzoate (10 nM in the assay) was used as ligand. These ion channel particles (synaptosomes) were concentrated from rat cerebral cortex according to the procedure of Gray and Whittaker (E. G. Gray and V. P. Whittaker (1962) J. Anat. 76, 79-88). The radioactivity that is measured in the presence of veratridine (0.3 mM in the assay) is defined as non-specific binding. The material was incubated at 37° C. for 120 minutes. The assay conditions are carried out according to the protocol published by Pauwels, Leysen and Laduron (P. J. Pauwels, J. E. Leysen and P. M. Laduron (1986) Eur. J. Pharmacol. 124, 291-298).
(N=3, i.e. mean values±SEM from 3 independent series of experiments that were carried out in the form of triple parallel experiments).
as §1

[4] = target: T1, NA transporter (Rattus norvegicus, UniProt Q63380); assay: synaptosomal noradrenaline uptake inhibition (NA uptake inhibition); assay type: biochemical; conditions: for inhibition at 1 µM: read-out: NA Uptake Inhibition at 1 μM, 1 μM in the assay, synaptosomes from rat hypothalamus; for NA Uptake Inhibition at 1 μM: 1 μM in the assay, synaptosomes from rat hypothalamus
T1 construct: synaptosomes are isolated fresh from rat brains; from tissue; host or cells: rat hypothalamus synaptosomes (P2 fraction)
Protocol: In order to carry out these in vitro studies, synaptosomes are isolated fresh from rat brains. In each case a so-called “P2” fraction is used, which is prepared according to the protocol of Gray and Whittaker (E. G. Gray and V. P. Whittaker (1962) J. Anat. 76, 79-88).
(in each case N=4, i.e. mean values±SEM from 4 independent series of experiments that were carried out in the form of triple parallel experiments).
as §1

T1 sequence (Q63380 1-617): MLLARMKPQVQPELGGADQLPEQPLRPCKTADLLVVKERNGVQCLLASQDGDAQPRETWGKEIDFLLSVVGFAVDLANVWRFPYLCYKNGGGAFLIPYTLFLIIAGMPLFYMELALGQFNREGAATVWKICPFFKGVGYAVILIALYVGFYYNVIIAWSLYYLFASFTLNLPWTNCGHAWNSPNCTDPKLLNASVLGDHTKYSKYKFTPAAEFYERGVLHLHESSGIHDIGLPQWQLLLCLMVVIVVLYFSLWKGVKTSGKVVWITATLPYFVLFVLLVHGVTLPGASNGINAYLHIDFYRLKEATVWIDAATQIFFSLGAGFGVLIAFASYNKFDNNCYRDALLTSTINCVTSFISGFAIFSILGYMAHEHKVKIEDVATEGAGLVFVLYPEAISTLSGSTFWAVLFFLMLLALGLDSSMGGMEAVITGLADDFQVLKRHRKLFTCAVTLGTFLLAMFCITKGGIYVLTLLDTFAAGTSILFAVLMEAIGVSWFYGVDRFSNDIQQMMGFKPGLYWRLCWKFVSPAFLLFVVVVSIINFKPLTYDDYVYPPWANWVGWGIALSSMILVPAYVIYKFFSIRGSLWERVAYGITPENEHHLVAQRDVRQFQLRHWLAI

| Structure (SMILES) | inhibition in vivo at 10 mg/kg [1] [%] | Diltiazem Binding at 10 μM [2] [%] | BTX Binding at 10 μM [3] [%] | inhibition at 1 µM [4] [%] | % Inhibition of the writhing reaction at 10 mg/kg intravenously [1] [%] | NA Uptake Inhibition at 1 μM [4] [%] |
| --- | --- | --- | --- | --- | --- | --- |
| CN(C)C(c1ccccc1)C1CCCCC1(O)Cc1cccc(Cl)c1.Cl (centres unmarked) [Example 32, 1-(3-chlorobenzyl)-2-(dimethylaminophenylmethyl)cyclohexanol, hydrochloride] | 100 | 98 | 94 | 100 |  |  |
| CN(C)C(c1ccccc1)C1CCCCC1(O)Cc1ccc(Cl)cc1Cl.Cl (centres unmarked) [Example 33, 1-(2,4-dichlorobenzyl)-2-(dimethylaminophenylmethyl)cyclohexanol, hydrochloride] | 84 | 86 | 98 | 83 |  |  |
| CN(C)C(c1ccccc1)(c1cccc(Oc2ccccc2)c1)C1CCCCC1(O)Cc1ccccc1.Cl (centres unmarked) [Example 34, 1-benzyl-2-[dimethylaminophenyl-(3-phenoxyphenyl)methyl]cyclohexanol, hydrochloride] | 99 | 100 | 100 | 96 |  |  |
| COc1cccc(C(c2ccccc2)(C2CCCCC2(O)Cc2ccccc2)N(C)C)c1.Cl (centres unmarked) [Example 35, 1-benzyl-2-[dimethylaminophenyl-(3-methoxyphenyl)methyl]cyclohexanol, hydrochloride] | 81 | 87 | 92 | 100 |  |  |
| COc1cccc(CC2(O)CCCCC2C(c2cccc(OC)c2)N(C)C)c1.Cl (centres unmarked) [Example 37, 2-(dimethylamino-(3-methoxyphenyl)methyl]-1-(3-methoxybenzyl)cyclohexanol, hydrochloride] | 93 | 94 | 90 | 100 |  |  |
| CN(C)C(c1ccccc1Cl)C1CCCCC1(O)c1ccc2ccccc2c1.Cl (centres unmarked) [Example 38, 2-[(2-chlorophenyl)dimethylaminomethyl]-1-naphthalene-2-ylcyclohexanol, hydrochloride] | 85 | 67 | 97 | 17 |  |  |
| CN(C)C(c1ccc(Cl)c(Cl)c1)C1CCCCC1(O)Cc1ccccc1.Cl (centres unmarked) [Example 39, 1-benzyl-2-[(3,4-dichlorophenyl)dimethylaminomethyl]cyclohexanol, hydrochloride] | 94 | 76 | 97 | 61 |  |  |
| CN(C)C(c1ccc(Cl)c(Cl)c1)C1CCCCC1(O)CCc1ccccc1.Cl (centres unmarked) [Example 40, 2-[(3,4-dichlorophenyl)dimethylaminomethyl]-1-phenethylcyclohexanol, hydrochloride] | 72 | 86 | 98 | 58 |  |  |
| CN(C)C(c1ccc(F)cc1)C1CCCCC1(O)Cc1ccccc1.Cl (centres unmarked) [Example 41, 1-benzyl-2-[dimethylamino-(4-fluorophenyl)methyl]cyclohexanol, hydrochloride] | 88 | 87 | 94 | 100 |  |  |
| CN(C)C(c1cccc(Cl)c1)C1CCCCC1(O)c1ccccc1.Cl (centres unmarked) [Example 42] |  | 50 | 89 |  | 76 | 82 |
| CN(C)CC1CCCCC1(O)c1ccc(Cl)cc1Cl.Cl (centres unmarked) [Example 43, 1-(2,4-dichlorophenyl)-2-(3-dimethylaminomethyl)-1-cyclohexanol, hydrochloride] |  | 73 | 94 |  | 80 | 14 |
| CN(C)C(c1cccc(Cl)c1)C1CCCCC1(O)Cc1ccccc1.Cl (centres unmarked) [Example 44, 1-benzyl-2-[(3-chlorophenyl)dimethylaminomethyl]cyclohexanol, hydrochloride] | 100 | 71 | 95 | 99 |  |  |
| CN(C)C(c1ccccc1Cl)C1CCCCC1(O)Cc1ccccc1.Cl (centres unmarked) [Example 45, 1-benzyl-2-[(2-chlorophenyl)dimethylaminomethyl]cyclohexanol, hydrochloride] | 82 | 67 | 96 | 89 |  |  |
| CN(C)C(c1ccc(Cl)c(Cl)c1)C1CCCCC1(O)Cc1ccc(C(C)(C)C)cc1.Cl (centres unmarked) [Example 46, 1-(4-tert.-butylbenzyl)-2-[(3,4-dichlorophenyl)dimethylaminomethyl]cyclohexanol, hydrochloride] | 68 | 93 | 96 | 35 |  |  |
| CN(C)C(c1ccc(F)cc1)C1CCCCC1(O)Cc1cccc(C(F)(F)F)c1.Cl (centres unmarked) [Example 47, 2-[dimethylamino-(4-fluorophenyl)methyl]-1-(3-trifluoromethylbenzyl)cyclohexanol, hydrochloride] | 89 | 84 | 100 | 100 |  |  |
| CN(C)C(c1ccccc1)C1CCCCC1(O)C1CCCCC1.Cl (centres unmarked) [Example 48, 2-(dimethylaminophenylmethyl)bicyclohexyl-1-ol, hydrochloride] | 94 | 86 | 96 | 29 |  |  |
| COc1ccc(CC2(O)CCCCC2C(c2ccccc2)N(C)C)cc1.Cl (centres unmarked) [Example 49, 2-(dimethylaminophenylmethyl)-1-(4-methoxybenzyl)cyclohexanol, hydrochloride] | 100 | 93 | 90 | 100 |  |  |
| CN(C)C(c1ccccc1)C1CCCCC1(O)Cc1ccc(F)cc1F.Cl (centres unmarked) [Example 50, 1-(2,4-difluorobenzyl)-2-(dimethylaminophenylmethyl)cyclohexanol, hydrochloride] | 85 | 93 | 95 | 100 |  |  |
| CN(C)C(c1cccc(Cl)c1)C1CCCCC1(O)Cc1ccc(C(C)(C)C)cc1.Cl (centres unmarked) [Example 51, 1-(4-tert.-butylbenzyl)-2-[(3-chlorophenyl)dimethylaminomethyl]cyclohexanol, hydrochloride] | 99 | 77 | 99 | 10 |  |  |
| CN(C)C(c1cccc(Oc2ccccc2)c1)C1CCCCC1(O)CCc1ccccc1.Cl (centres unmarked) [Example 52, 2-[dimethylamino-(3-phenoxyphenyl)methyl]-1-phenethylcyclohexanol, hydrochloride] | 70 | 98 | 99 | 38 |  |  |
